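Following 48 hours of exposure in 96-well plates, responses at five concentrations were used to interpolate endpoints linearly. Here, GI50 denotes the concentration required for 50% inhibition of growth. TGI: total growth inhibition.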
How the values were obtained:
Experiment in all cases: NCI-60 cell line screen, 48 h
HOP-92 NSCLC = tested on: HOP-92 NSCLC
786-0 renal = tested on: 786-0 renal
ACHN renal = tested on: ACHN renal
NCI/ADR-RES ovarian = tested on: NCI/ADR-RES ovarian
RXF 393 renal = tested on: RXF 393 renal
HS 578T breast = tested on: HS 578T breast
SK-MEL-2 melanoma = tested on: SK-MEL-2 melanoma
CCRF-CEM leukemia = tested on: CCRF-CEM leukemia
SNB-19 CNS = tested on: SNB-19 CNS
SF-268 CNS = tested on: SF-268 CNS
NCI-H23 lung = tested on: NCI-H23 lung
SF-539 CNS = tested on: SF-539 CNS
TK-10 renal = tested on: TK-10 renal
BT-549 breast = tested on: BT-549 breast
SF-295 CNS = tested on: SF-295 CNS
MDA-MB-231 breast = tested on: MDA-MB-231 breast
SNB-75 CNS = tested on: SNB-75 CNS
HOP-62 NSCLC = tested on: HOP-62 NSCLC
U251 CNS = tested on: U251 CNS
HT29 colon = tested on: HT29 colon
MCF7 breast = tested on: MCF7 breast
SK-MEL-5 melanoma = tested on: SK-MEL-5 melanoma
UO-31 renal = tested on: UO-31 renal
MALME-3M melanoma = tested on: MALME-3M melanoma
OVCAR-3 ovarian = tested on: OVCAR-3 ovarian
LOX IMVI melanoma = tested on: LOX IMVI melanoma
MOLT-4 leukemia = tested on: MOLT-4 leukemia
HCC-2998 colon = tested on: HCC-2998 colon
OVCAR-5 ovarian = tested on: OVCAR-5 ovarian
IGROV1 ovarian = tested on: IGROV1 ovarian
OVCAR-4 ovarian = tested on: OVCAR-4 ovarian
A498 renal = tested on: A498 renal
NCI-H226 lung = tested on: NCI-H226 lung
SK-MEL-28 melanoma = tested on: SK-MEL-28 melanoma
COLO 205 colon = tested on: COLO 205 colon
SK-OV-3 ovarian = tested on: SK-OV-3 ovarian
K-562 leukemia = tested on: K-562 leukemia
UACC-62 melanoma = tested on: UACC-62 melanoma
NCI-H460 lung = tested on: NCI-H460 lung
EKVX NSCLC = tested on: EKVX NSCLC
UACC-257 melanoma = tested on: UACC-257 melanoma
SW-620 colon = tested on: SW-620 colon
OVCAR-8 ovarian = tested on: OVCAR-8 ovarian
NCI-H522 lung = tested on: NCI-H522 lung
T-47D breast = tested on: T-47D breast
HL-60(TB) leukemia = tested on: HL-60(TB) leukemia
RPMI-8226 leukemia = tested on: RPMI-8226 leukemia
M14 melanoma = tested on: M14 melanoma
HCT-116 colon = tested on: HCT-116 colon
SN12C renal = tested on: SN12C renal
KM12 colon = tested on: KM12 colon
SR leukemia = tested on: SR leukemia
A549 NSCLC = tested on: A549 NSCLC
MDA-MB-435 = tested on: MDA-MB-435
HCT-15 colon = tested on: HCT-15 colon
PC-3 prostate = tested on: PC-3 prostate

## CC(=O)Nc1ccc(NC(=O)Nc2cccc(-c3nc(-c4ccc(NC(=O)c5cccs5)cc4Cl)no3)c2)cc1C(F)(F)F
HOP-92 NSCLC
  GI50: 1.09 µM
  TGI: 3.02 µM
786-0 renal
  GI50: 2.12 µM
  TGI: 4.76 µM
ACHN renal
  GI50: 2.67 µM
  TGI: 8.41 µM
NCI/ADR-RES ovarian
  GI50: 19.7 µM
  TGI: > 100 µM
RXF 393 renal
  GI50: 1.14 µM
  TGI: 2.45 µM
HS 578T breast
  GI50: 1.83 µM
  TGI: 4.55 µM
SK-MEL-2 melanoma
  GI50: 2.06 µM
  TGI: 4.15 µM
CCRF-CEM leukemia
  GI50: 1.83 µM
  TGI: > 100 µM
SNB-19 CNS
  GI50: 0.692 µM
  TGI: 2.67 µM
SF-268 CNS
  GI50: 1.56 µM
  TGI: 4.08 µM
NCI-H23 lung
  GI50: 1.33 µM
  TGI: 3.04 µM
SF-539 CNS
  GI50: 1.45 µM
  TGI: 2.91 µM
TK-10 renal
  GI50: 2.19 µM
  TGI: 5.07 µM
BT-549 breast
  GI50: 1.68 µM
  TGI: 4.6 µM
SF-295 CNS
  GI50: 1.46 µM
  TGI: 2.99 µM
MDA-MB-231 breast
  GI50: 0.666 µM
  TGI: 2.23 µM
SNB-75 CNS
  GI50: 1.31 µM
  TGI: 2.99 µM
HOP-62 NSCLC
  GI50: 0.718 µM
  TGI: 2.25 µM
U251 CNS
  GI50: 0.354 µM
  TGI: 1.08 µM

## CCC(C)[C@H]1OC(=O)[C@H](C(C)C)N(C)C(=O)[C@@H](C(C)C)OC(=O)[C@H](C(C)C)N(C)C(=O)[C@@H](C(C)CC)OC(=O)[C@H](C(C)C)N(C)C1=O (stereo not given in full)
HT29 colon
  GI50: 0.567 µM
  TGI: 2.16 µM
MCF7 breast
  GI50: 0.529 µM
  TGI: > 16.7 µM
HOP-92 NSCLC
  GI50: 0.379 µM
  TGI: 1.05 µM
SK-MEL-5 melanoma
  GI50: 0.357 µM
  TGI: 0.783 µM
UO-31 renal
  GI50: 0.422 µM
  TGI: 1.71 µM
786-0 renal
  GI50: 0.575 µM
  TGI: 5.39 µM
ACHN renal
  GI50: 0.517 µM
  TGI: 2.96 µM
MALME-3M melanoma
  GI50: 0.458 µM
  TGI: 1.81 µM
NCI/ADR-RES ovarian
  GI50: 0.51 µM
  TGI: 5.9 µM
OVCAR-3 ovarian
  GI50: 0.694 µM
  TGI: > 16.7 µM
RXF 393 renal
  GI50: 0.42 µM
  TGI: 2.57 µM
LOX IMVI melanoma
  GI50: 0.562 µM
  TGI: 2.14 µM
MOLT-4 leukemia
  GI50: 0.793 µM
  TGI: 2.85 µM
HCC-2998 colon
  GI50: 0.846 µM
  TGI: 8.06 µM
OVCAR-5 ovarian
  GI50: 0.537 µM
  TGI: 6.12 µM
IGROV1 ovarian
  GI50: 0.886 µM
  TGI: > 16.7 µM
HS 578T breast
  GI50: 0.745 µM
  TGI: 6.96 µM
SK-MEL-2 melanoma
  GI50: 0.533 µM
  TGI: 2.19 µM
OVCAR-4 ovarian
  GI50: 0.632 µM
  TGI: > 16.7 µM
A498 renal
  GI50: 0.39 µM
  TGI: 1.17 µM
CCRF-CEM leukemia
  GI50: 0.6 µM
  TGI: 3.04 µM
SNB-19 CNS
  GI50: 0.616 µM
  TGI: 3.89 µM
NCI-H226 lung
  GI50: 0.647 µM
  TGI: 2.73 µM
SF-268 CNS
  GI50: 0.726 µM
  TGI: 4.26 µM
SK-MEL-28 melanoma
  GI50: 0.952 µM
  TGI: 4.45 µM
NCI-H23 lung
  GI50: 0.548 µM
  TGI: > 16.7 µM
COLO 205 colon
  GI50: 0.341 µM
  TGI: 0.743 µM
SF-539 CNS
  GI50: 0.638 µM
  TGI: 2.71 µM
SK-OV-3 ovarian
  GI50: 0.379 µM
  TGI: 1.01 µM
K-562 leukemia
  GI50: 0.687 µM
  TGI: > 16.7 µM
UACC-62 melanoma
  GI50: 0.71 µM
  TGI: 2.98 µM
NCI-H460 lung
  GI50: 0.57 µM
  TGI: 3.35 µM
EKVX NSCLC
  GI50: 0.554 µM
  TGI: > 16.7 µM
UACC-257 melanoma
  GI50: 0.427 µM
  TGI: 1.56 µM
SW-620 colon
  GI50: 0.616 µM
  TGI: > 16.7 µM
TK-10 renal
  GI50: 0.543 µM
  TGI: 3.97 µM
OVCAR-8 ovarian
  GI50: 0.61 µM
  TGI: > 16.7 µM
BT-549 breast
  GI50: 0.501 µM
  TGI: 1.75 µM
NCI-H522 lung
  GI50: 0.429 µM
  TGI: 1.65 µM
T-47D breast
  GI50: 0.472 µM
  TGI: 1.47 µM
HL-60(TB) leukemia
  GI50: 0.383 µM
  TGI: 0.851 µM
RPMI-8226 leukemia
  GI50: 0.413 µM
  TGI: 1.02 µM
SF-295 CNS
  GI50: 0.453 µM
  TGI: 1.53 µM
MDA-MB-231 breast
  GI50: 0.52 µM
  TGI: 1.63 µM
M14 melanoma
  GI50: 0.601 µM
  TGI: 2.55 µM
HCT-116 colon
  GI50: 0.532 µM
  TGI: > 16.7 µM
SN12C renal
  GI50: 0.544 µM
  TGI: 2.16 µM
KM12 colon
  GI50: 0.651 µM
  TGI: > 16.7 µM
SR leukemia
  GI50: 0.685 µM
  TGI: 3.62 µM
A549 NSCLC
  GI50: 0.514 µM
  TGI: > 16.7 µM
SNB-75 CNS
  GI50: 0.507 µM
  TGI: 2.82 µM
MDA-MB-435
  GI50: 0.619 µM
  TGI: 7.65 µM
HOP-62 NSCLC
  GI50: 0.491 µM
  TGI: 2.42 µM
U251 CNS
  GI50: 0.56 µM
  TGI: 2.33 µM
HCT-15 colon
  GI50: 0.536 µM
  TGI: 3.52 µM
PC-3 prostate
  GI50: 0.588 µM
  TGI: 9.93 µM
